The numbers were not newly measured in patent US20070122486A1, “Nanoparticulate insulin” (Elan Pharma International Limited, priority 2001, published 2007), which cites them from elsewhere.

For this data set the following is noted: physiological conditions.

With “Soluble insulin: Available soluble composition of insulin, a 5.8 kD protein hormone”, the duration of activity result is “about six” and the onset of activity result is given as “about 30 minutes”.
